Reference: US8304447B2, “2-acylaminopropoanol-type glucosylceramide synthase inhibitors” (Genzyme Corporation, priority 2007, dated 2012)

tested on: GM3; experiment: GM3 Elisa assay; type: cell-based; conditions: 48 h, Table 1; B16-FO cells, 2 days incubation; read-out: IC50_uM_Mean
Summary of the method: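 Cellular GM3 ELISA: fixed cells probed with monoclonal anti-GM3 (NeuAc), HRP-conjugated anti-IgM and fluorogenic Quantablu substrate, read at Ex 325/Em 420. Cells were B16-FO, treated 2 days after a 6 h attachment on collagen-coated wells.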

IC50	SMILES
0.1 to 1 µM	O=C(NCc1ccccc1)N[C@H](CN1CCCC1)[C@H](O)c1ccc2c(c1)OCCO2 [Compound 6, 1-benzyl-3-((1R,2R)-1-(2,3-dihydrobenzo[β][1,4]dioxin-6-yl)-1-hydroxy-3-(pyrrolidin-1-yl)propan-2-yl)urea]
0.1 to 1 µM	COc1ccc(C(=O)CCC(=O)N[C@H](CN2CCCC2)[C@H](O)c2ccc3c(c2)OCCO3)cc1 [Compound 154, N-((1R,2R)-1-(2,3-dihydrobenzo[b][1,4]dioxin-6-yl)-1-hydroxy-3-(pyrrolidin-1-yl)propan-2-yl)-4-(4-methoxyphenyl)-4-oxobutanamide]
≤ 0.1 µM	O=C(Nc1ccc(-c2ccccc2)cc1)N[C@H](CN1CCCC1)[C@H](O)c1ccc2c(c1)OCCO2 [Compound 70, 1-(biphenyl-4-yl)-3-((1R,2R)-1-(2,3-dihydrobenzo[β][1,4]dioxin-6-yl)-1-hydroxy-3-(pyrrolidin-1-yl)propan-2-yl)urea]
1 to 3 µM	O=C(CCCCCNS(=O)(=O)c1ccc2c(c1)OCCO2)N[C@H](CN1CCCC1)[C@H](O)c1ccc2c(c1)OCCO2 [Compound 102, N-((1R,2R)-1-(2,3-dihydrobenzo[β][1,4]dioxin-6-yl)-1-hydroxy-3-(pyrrolidin-1-yl)propan-2-yl)-6-(2,3-dihydrobenzo[β][1,4]dioxine-6-sulfonamido)hexanamide]
0.1 to 1 µM	CCc1ccc(OCCC(=O)N[C@H](CN2CCCC2)[C@H](O)c2ccc3c(c2)OCCO3)cc1 [Compound 188, N-((1R,2R)-1-(2,3-dihydrobenzo[b][1,4]dioxin-6-yl)-1-hydroxy-3-(pyrrolidin-1-yl)propan-2-yl)-3-(4-ethylphenoxy)propanamide (2R,3R)-2,3-dihydroxysuccinate]
≤ 0.1 µM	O=C(CCOc1ccccc1F)N[C@H](CN1CCCC1)[C@H](O)c1ccc2c(c1)OCCO2 [Compound 60, N-((1R,2R)-1-(2,3-dihydrobenzo[β][1,4]dioxin-6-yl)-1-hydroxy-3-(pyrrolidin-1-yl)propan-2-yl)-3-(2-fluorophenoxy)propanamide]
0.1 to 1 µM	O=C(N[C@H](CN1CCCC1)[C@H](O)c1ccc2c(c1)OCCO2)c1ccc2sccc2c1 [Compound 19, N-((1R,2R)-1-(2,3-dihydrobenzo[β][1,4]dioxin-6-yl)-1-hydroxy-3-(pyrrolidin-1-yl)propan-2-yl)benzo[b]thiophene-5-carboxamide]
≤ 0.1 µM	O=C(CSCc1ccccc1)N[C@H](CN1CCCC1)[C@H](O)c1ccc2c(c1)OCCO2 [Compound 39, 2-(benzylthio)-N-((1R,2R)-1-(2,3-dihydrobenzo[β][1,4]dioxin-6-yl)-1-hydroxy-3-(pyrrolidin-1-yl)propan-2-yl)acetamide]

same assay, conditions: 48 h, Table 2; B16-FO cells, 2 days incubation; read-out: IC50_uM_Mean

IC50	SMILES
> 10 µM	COc1ccc([C@@H](O)[C@@H](CN2CCCC2)NC(=O)CCCOc2ccc(C(C)=O)cc2)cc1OC [Compound 278]
≤ 0.1 µM	COc1ccc(C(=O)CCCCC(=O)N[C@H](CN2CCCC2)[C@H](O)c2ccc(OC)cc2)cc1 [Compound 269]
0.1 to 1 µM	COc1ccc(C(=O)CCCCCC(=O)N[C@H](CN2CCCC2)[C@H](O)c2ccc(OC)c(OC)c2)cc1 [Compound 276]
0.1 to 1 µM	COc1ccc(OCCC(=O)N[C@H](CN2CCCCC2)[C@H](O)c2ccc3c(c2)OCCO3)cc1 [Compound 261, N-((1R,2R)-1-(2,3-dihydrobenzo[β][1,4]dioxin-6-yl)-1-hydroxy-3-(piperidin-1-yl)propan-2-yl)-3-(4-methoxyphenoxy)propanamide]

same assay, conditions: Table 3 (IC 50 Values); B16-FO cells; read-out: IC50_uM_Mean

SMILES	IC50
CCCCCCOc1ccc([C@@H](O)[C@@H](CN2CCCC2)NC(=O)CCOc2ccc(OC)cc2)cc1 [Compound 413]	≤ 0.1 µM
COc1ccc(C(=O)CCCCCC(=O)N[C@@H](CN(C)C)[C@@H](O)c2ccc3c(c2)OCCO3)cc1 [Compound 469]	0.1 to 1 µM
COc1ccc(C(=O)CCCC(=O)N[C@H](CN2CCCC2)[C@H](O)/C=C/c2ccccc2)cc1 [Compound 393]	3 to 10 µM
CCCCCCCC(=O)N[C@H](CN1CCCC1)[C@H](O)c1ccc2c(c1)OC(F)(F)O2 [Compound 411]	3 to 10 µM
O=C(CCCOc1ccc(F)cc1)N[C@@H](CN1C2CCC1CC2)C(O)c1ccc2c(c1)OCCO2 (stereo partly shown) [Compound 472]	0.1 to 1 µM
O=C(CCCCC(=O)c1ccc(F)cc1)N[C@H](CN1C2CCC1CC2)[C@H](O)c1ccc2c(c1)OCCO2 [Compound 476]	0.1 to 1 µM
Cc1ccc(OCCC(=O)N[C@H](CN2CC[C@@H](F)C2)[C@H](O)c2ccc(OC(C)C)cc2)cc1 [Compound 448]	0.1 to 1 µM
COc1ccc(OCCCC(=O)N[C@H](CN2CC[C@H](O)C2)[C@H](O)c2ccc(OCCCCF)cc2)cc1 [Compound 501]	≤ 0.1 µM
COc1ccc([C@@H](O)[C@@H](CO)NC(=O)OCc2ccccc2)cc1F [Compound 482]	3 to 10 µM
COc1ccc(C(=O)CCCC(=O)N[C@H](CN2CCCC2)[C@H](O)c2ccc(OC)c(C)c2)cc1 [Compound 386]	0.1 to 1 µM
COCCOc1ccc(C(=O)CCCC(=O)N[C@H](CN2CCCC2)[C@H](O)c2ccc(OC(C)C)cc2)cc1 [Compound 451]	0.1 to 1 µM

Next, values leading:

IC50	SMILES
0.1 to 1 µM	COc1ccc(OCCC(=O)N[C@H](CN2CCCC2)[C@H](O)c2ccccc2OC)cc1 [Compound 700]
0.1 to 1 µM	O=C(CCCOc1ccc(F)cc1)N[C@H](CN1CC[C@@H](F)C1)[C@H](O)c1ccc2c(c1)OCCO2 [Compound 567]
3 to 10 µM	CCCCCCCC(=O)N[C@H](CCN1CCCC1)[C@H](O)c1ccc2c(c1)OCCO2 [Compound 687]
3 to 10 µM	COc1ccc(C(=O)CCCCCC(=O)N[C@H](CN2CC[C@H](OC)C2)[C@H](O)c2ccc3c(c2)OCCO3)cc1 [Compound 583]
3 to 10 µM	O=C(CCCC#CC1(O)CCCCC1)N[C@H](CN1CCCC1)[C@H](O)c1ccc2c(c1)OCCO2 [Compound 631]
3 to 10 µM	CCCCCCCC(=O)N[C@H](CN1CCC[C@H]1C)[C@@H](O)c1ccc2c(c1)OCCO2 [Compound 530]
≤ 0.1 µM	CCCCOc1ccc([C@@H](O)[C@@H](CN2CC[C@H](O)C2)NC(=O)CCCCCCCOC)cc1 [Compound 586]
0.1 to 1 µM	O=C(CCCCCOCC(F)(F)F)N[C@H](CN1CCCC1)[C@H](O)c1ccc2c(c1)OCCO2 [Compound 620]
≤ 0.1 µM	COc1ccc(OCCC(=O)N[C@H](CN2CCCC2)[C@H](O)c2ccc(OCCOc3cccc(C)c3)cc2)cc1 [Compound 722]
0.1 to 1 µM	O=C(CCCCC(=O)C1CCC(F)(F)CC1)N[C@H](CN1CC[C@@H](F)C1)[C@H](O)c1ccc(OCc2ccccc2)cc1 [Compound 573]
3 to 10 µM	CCCCCCCC(=O)N[C@H](CN1CCC[C@@H]1COC)[C@H](O)c1ccc2c(c1)OCCO2 [Compound 540]
0.1 to 1 µM	O=C(CCCCOCC(F)(F)F)N[C@H](CN1CCCC1)[C@H](O)c1ccc(OCc2ccccc2)cc1 [Compound 647]
1 to 3 µM	COc1ccc(C(=O)CCCCCC(=O)N[C@H](CN2CCCC2(C)C)[C@H](O)c2ccc3c(c2)OCCO3)cc1 [Compound 552]
3 to 10 µM	O=C(CCCCC(=O)C1CCOCC1)N[C@H](CN1CCCC1)[C@H](O)c1ccc2c(c1)OCCO2 [Compound 556]
3 to 10 µM	CCCCCCCC(=O)N[C@H](CC1CC(OCCC)C1)[C@H](O)c1ccc2c(c1)OCCO2 (stereo partly shown) [Compound 596]
0.1 to 1 µM	COc1ccc(S(=O)(=O)CCCCCC(=O)N[C@H](CN2CC[C@@H](F)C2)[C@H](O)c2ccc3c(c2)OCCO3)cc1 [Compound 564]
3 to 10 µM	CCCCCCCC(=O)N[C@H](CN1CCC(C)CC1)[C@H](O)c1ccc2c(c1)OCCO2 [Compound 611]
